The text below walks through data of ChEMBL document CHEMBL3621203, “Discovery and Structure Enabled Synthesis of 2,6-Diaminopyrimidin-4-one IRAK4 Inhibitors” (ACS Med Chem Lett, 2015).

A short description of data set [1]: Apparent permeability of the compound across pig LLC-PK1 cells. The data set is classed as ADME, cell-based, Sus scrofa.
The nature of data set [2]: Clearance in Wistar Han rat at 1 mg/kg, iv. The data set is classed as ADME, organism-based. The settings on record: in vivo.
Data set [3] is described as follows: Oral bioavailability in Wistar Han rat at 10 mg/kg. The data set is classed as ADME, organism-based. The settings on record: in vivo.
Data set [4] in a line: Kinetic solubility of the compound at pH 7. The data set is classed as physicochemical. The settings on record: buffer.
For data set [5], the target named is T1, Interleukin-1 receptor-associated kinase 4 (Homo sapiens, UniProt Q9NWZ3).
T1 sequence (Q9NWZ3 whole entry): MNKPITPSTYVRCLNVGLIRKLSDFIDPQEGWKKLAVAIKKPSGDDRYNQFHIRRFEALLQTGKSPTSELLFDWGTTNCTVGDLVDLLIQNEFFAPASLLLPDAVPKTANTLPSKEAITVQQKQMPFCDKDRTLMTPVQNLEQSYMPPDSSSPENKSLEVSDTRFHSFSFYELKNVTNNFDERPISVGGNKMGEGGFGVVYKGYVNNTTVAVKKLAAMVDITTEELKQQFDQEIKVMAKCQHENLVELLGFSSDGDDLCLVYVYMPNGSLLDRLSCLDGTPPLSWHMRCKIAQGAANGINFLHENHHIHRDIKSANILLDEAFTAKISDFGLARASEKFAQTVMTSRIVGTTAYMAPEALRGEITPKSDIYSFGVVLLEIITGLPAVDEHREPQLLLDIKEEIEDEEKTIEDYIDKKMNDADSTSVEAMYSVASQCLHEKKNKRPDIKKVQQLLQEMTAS
Nature of the data set: Inhibition of IRAK4 (unknown origin) using 5FAM-RKRQGSVRRRVHCCOOH as substrate after 30 mins by IMAP assay.

The target in data set [6] is T1, Interleukin-1 receptor-associated kinase 4. Kind of data set: Inhibition of IRAK4-mediated NFkappaB activation in human THP1-XBlue cells assessed as LPS-induced secreted embryonic alkaline phosphatase activity treated 1 hr before LPS challenge measured after 5 hrs by spectrophotometer analysis. The data set is classed as cell-based, THP-1.
For data set [7], the target named is Receptor-type tyrosine-protein kinase FLT3 (Homo sapiens) (UniProt P36888). Kind of data set: Inhibition of FLT3 (unknown origin).

Structures are written as SMILES. Converted amounts (≈) assume the structure as drawn. The source made the active and inactive calls. The calls are words filed in the database; no cut-off is given here.

Sequence of Receptor-type tyrosine-protein kinase FLT3 (Homo sapiens) (P36888 whole entry): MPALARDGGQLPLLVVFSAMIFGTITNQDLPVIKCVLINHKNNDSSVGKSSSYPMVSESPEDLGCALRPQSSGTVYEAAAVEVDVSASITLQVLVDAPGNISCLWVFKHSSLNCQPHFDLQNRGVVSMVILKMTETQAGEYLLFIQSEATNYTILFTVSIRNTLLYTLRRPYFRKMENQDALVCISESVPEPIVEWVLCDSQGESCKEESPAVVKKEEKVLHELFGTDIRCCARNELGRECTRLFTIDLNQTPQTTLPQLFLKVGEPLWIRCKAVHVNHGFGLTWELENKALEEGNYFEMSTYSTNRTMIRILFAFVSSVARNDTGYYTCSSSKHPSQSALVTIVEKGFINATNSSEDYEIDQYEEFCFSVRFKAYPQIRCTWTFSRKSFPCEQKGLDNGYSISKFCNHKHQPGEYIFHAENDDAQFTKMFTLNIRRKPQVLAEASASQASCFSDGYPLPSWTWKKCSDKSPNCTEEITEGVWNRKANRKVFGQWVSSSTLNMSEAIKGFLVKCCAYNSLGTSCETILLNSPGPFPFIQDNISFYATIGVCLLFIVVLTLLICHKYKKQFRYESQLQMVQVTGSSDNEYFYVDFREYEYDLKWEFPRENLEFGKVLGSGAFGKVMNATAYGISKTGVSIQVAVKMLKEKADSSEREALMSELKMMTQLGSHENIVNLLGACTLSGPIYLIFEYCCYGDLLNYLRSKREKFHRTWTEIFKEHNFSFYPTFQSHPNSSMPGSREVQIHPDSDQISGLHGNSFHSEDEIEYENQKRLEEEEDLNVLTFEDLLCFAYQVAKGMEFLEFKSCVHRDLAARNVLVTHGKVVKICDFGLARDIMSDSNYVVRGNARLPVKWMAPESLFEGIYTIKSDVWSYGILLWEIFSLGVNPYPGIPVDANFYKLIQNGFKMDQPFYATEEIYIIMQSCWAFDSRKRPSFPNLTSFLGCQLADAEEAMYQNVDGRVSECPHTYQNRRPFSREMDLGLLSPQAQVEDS

As to `O=c1[nH]c(N2CCOCC2)nc(N[C@@H]2CCCNC2)c1-c1nc2ccccc2s1`, the Papp in data set [1] amounted to 29 ×10⁻⁶ cm/s. In addition, the clearance in data set [2] amounted to 45 mL/min/kg. This compound also showed a bioavailability in data set [3] of 13%. Besides, in data set [4], the solubility (kinetic) was 21 µM (≈ 8.66 µg/mL).

For the compound `C[C@H]1CC[C@@H](Nc2nc(N3CCOCC3)[nH]c(=O)c2-c2nc3ccccc3s2)CN1`, the IC50 in data set [5] stood at 565 nM.

As for `OC[C@H]1C[C@@H](Nc2nc(NC3CC3)ncc2-c2nc3ccccc3s2)[C@H](O)[C@@H]1O`, the IC50 in data set [5] came out at 470 nM.

For the compound `CSc1nc(N[C@@H]2C[C@H](CO)[C@@H](O)[C@H]2O)c(-c2nc3ccccc3s2)c(=O)[nH]1`, the midpoint of inhibition in data set [5], the IC50, lay at 352 nM.

Take `O=c1[nH]c(N2CCc3ccccc3C2)nc(N[C@@H]2C[C@H](CO)[C@@H](O)[C@H]2O)c1-c1nc2ccccc2s1`: in data set [1], the Papp is 5 ×10⁻⁶ cm/s. Also, the figures for the IC50 in data set [6] and in data set [5] were 141 nM and 27 nM, respectively. The same compound displayed a clearance in data set [2] of 88 mL/min/kg. Moreover, the bioavailability in data set [3] came out at 0%. Further, the inhibition entry in data set [7] was “Active”. Moreover, the kinetic solubility in data set [4] came out at 12 µM (≈ 6.07 µg/mL).

`C[C@@H]1CC[C@@H](Nc2nc(N3CCOCC3)[nH]c(=O)c2-c2nc3ccccc3s2)CN1`: in data set [1], the Papp came out at 15 ×10⁻⁶ cm/s. Further, the figures for the IC50 in data set [6] and in data set [5] were 580 nM and 93 nM, respectively. The compound also registered a clearance in data set [2] of 51 mL/min/kg. In data set [3], this compound had a bioavailability of 42%. This compound came in with a solubility (kinetic) in data set [4] of 13 µM (≈ 5.55 µg/mL).

`O=c1[nH]c(N2CCOCC2)nc(N[C@H]2CNC[C@H](O)C2)c1-c1nc2ccccc2s1`: the Papp in data set [1] was found to be 9 ×10⁻⁶ cm/s. In data set [6], the IC50 worked out at 333 nM. This compound displayed a clearance in data set [2] of 43 mL/min/kg. For the same compound, in data set [3], the bioavailability came out at 2%. The compound also gave a solubility (kinetic) in data set [4] of 8 µM (≈ 3.43 µg/mL).

Compound `CN(C)c1nc(N[C@@H]2C[C@H](CO)[C@@H](O)[C@H]2O)c(-c2nc3ccccc3s2)c(=O)[nH]1` had an IC50 in data set [5] of 490 nM.

As for `O=c1[nH]c(N2CCC2)nc(N[C@@H]2C[C@H](CO)[C@@H](O)[C@H]2O)c1-c1nc2ccccc2s1`, the Papp in data set [1] was found to be 18 ×10⁻⁶ cm/s. For the same compound, the IC50 in data set [6] came out at 292 nM. The compound also registered a clearance in data set [2] of 75 mL/min/kg. For the same compound, the bioavailability in data set [3] was 4%. In data set [4], this compound registered a kinetic solubility of 23 µM (≈ 9.88 µg/mL).

As to `O=c1[nH]c(N2CCCC2)nc(N[C@@H]2C[C@H](CO)[C@@H](O)[C@H]2O)c1-c1nc2ccccc2s1`, the Papp in data set [1] was found to be 12 ×10⁻⁶ cm/s. Also, the IC50 in data set [6] worked out at 78 nM. Further, in data set [4], the kinetic solubility is 26 µM (≈ 11.5 µg/mL).

For `CCc1nc(N[C@@H]2C[C@H](CO)[C@@H](O)[C@H]2O)c(-c2nc3ccccc3s2)c(=O)[nH]1`, the IC50 in data set [5] was determined as 972 nM.

For the compound `O=c1[nH]c(N2CCOCC2)nc(N[C@@H]2C[C@H](CO)[C@@H](O)[C@H]2O)c1-c1nc2ccccc2s1`, in data set [1], the Papp is 7 ×10⁻⁶ cm/s. The same compound gave a clearance in data set [2] of 98 mL/min/kg. In data set [3], this compound yielded a bioavailability of 0%. For the same compound, the kinetic solubility in data set [4] was 63 µM (≈ 29 µg/mL).

As a reminder, the Papp is the rate of passage across a membrane or cell layer, normalised by area and donor concentration. As usually defined, the clearance is the rate of elimination divided by the concentration. For orientation: bioavailability means dose-corrected exposure relative to a reference, in per cent. Read a low bioavailability as little systemic uptake. A word on the kinetic solubility: it is solubility judged after dilution from a stock solution rather than from solid. Broadly, the IC50 is the concentration that gives 50% inhibition.
